Reference: patent publication US20250197407A1 (Jazz Pharmaceuticals Ireland Limited, priority 2022, published 2025)

Molecular target: SOS1/KRAS WT (Homo sapiens (Human), UniProt Q07889)
Test: SOS1/KRAS WT HTRF binding assay (FRET-based protein-protein interaction)
Details: inhibition of His6-SOS1 (aa564-1049, 40 nM) binding to GST-KRAS-WT (aa1-188, 40 nM); at least two independent replicates; read-out: SOS1/KRAS WT HTRF Binding assay pIC50 (converted)
Procedure, shortened: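 Time-resolved FRET at 665 nm, read 4 hr after adding anti-GST-Eu(K) (4 nM) and anti-6His-XL665 (20 nM), tracked SOS1(aa564-1049)–KRAS WT(aa1-188) association. Both proteins were at 40 nM, pre-incubated 60 min at room temperature with compound. Max/min signals came from 0.05% DMSO and 10 μM reference, with four-parameter logistic IC50.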

SOS1/KRAS WT, sequence (Q07889 564-1049): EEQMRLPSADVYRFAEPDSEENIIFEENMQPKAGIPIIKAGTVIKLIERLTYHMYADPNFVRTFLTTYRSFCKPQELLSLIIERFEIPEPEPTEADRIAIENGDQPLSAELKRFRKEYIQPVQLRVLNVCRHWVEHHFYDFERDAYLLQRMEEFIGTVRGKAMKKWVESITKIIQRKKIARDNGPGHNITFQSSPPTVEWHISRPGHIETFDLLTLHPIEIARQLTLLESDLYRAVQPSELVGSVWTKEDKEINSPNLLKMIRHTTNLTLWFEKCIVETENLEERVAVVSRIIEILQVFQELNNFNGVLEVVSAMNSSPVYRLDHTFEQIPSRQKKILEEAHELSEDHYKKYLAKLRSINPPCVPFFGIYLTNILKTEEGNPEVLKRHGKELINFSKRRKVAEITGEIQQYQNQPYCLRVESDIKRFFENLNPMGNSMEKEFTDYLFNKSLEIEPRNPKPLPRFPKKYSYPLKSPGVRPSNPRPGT

| SMILES | IC50 |
| --- | --- |
| Cc1c([C@@H](C)Nc2nnc(C)c3cc4c(cc23)N(C)C(=O)C4(C)C)cccc1C(F)(F)C(C)(C)O [Compound 108, 1,3,3,5-tetramethyl-8-[[(1R)-1-[3-(1,1-difluoro-2-hydroxy-2-methyl-propyl)-2-methyl-phenyl]ethyl]amino]pyrrolo[2,3-g]phthalazin-2-one] | 10.5 nM |
| Cc1nnc(N[C@H](C)c2cccc(C(F)(F)CO)c2F)c2cc3c(cc12)C(C)(C)C(=O)N3C [Compound 109, 1,3,3,5-tetramethyl-8-[[(1R)-1-[3-(1,1-difluoro-2-hydroxy-ethyl)-2-fluoro-phenyl]ethyl]amino]pyrrolo[2,3-g]phthalazin-2-one] | 7.08 nM |
| Cc1nnc(N[C@H](C)c2cccc(C(F)(F)CO)c2F)c2cc3c(cc12)C(C)(C)C(=O)N3C(C)C [Compound 110, 1-isopropyl-3,3,5-trimethyl-8-[[(1R)-1-[3-(1,1-difluoro-2-hydroxy-ethyl)-2-fluoro-phenyl]ethyl]amino]pyrrolo[2,3-g]phthalazin-2-one] | 7.08 nM |
| Cc1nnc(N[C@H](C)c2cccc(C(F)(F)C(C)(C)O)c2F)c2cc3c(cc12)C(C)(C)C(=O)N3C(C)C [Compound 111, 1-isopropyl-3,3,5-trimethyl-8-[[(1R)-1-[3-(1,1-difluoro-2-hydroxy-2-methyl-propyl)-2-fluoro-phenyl]ethyl]amino]pyrrolo[2,3-g]phthalazin-2-one] | 7.41 nM |
| Cc1nnc(N[C@H](C)c2cccc(C(F)(F)CO)c2)c2cc3c(cc12)C1(CCOCC1)C(=O)N3C1CC1 [Compound 112, 1-cyclopropyl-5-methyl-8-[[(1R)-1-[3-(1,1-difluoro-2-hydroxy-ethyl)phenyl]ethyl]amino]spiro [pyrrolo[2,3-g]phthalazine-3,4′-tetrahydropyran]-2-one] | 11 nM |
| COCC1(C)C(=O)N(C)c2cc3c(N[C@H](C)c4cccc(C(F)(F)C(C)(C)O)c4C)nnc(C)c3cc21 (stereo partly drawn) [Compound 113, 8-[[(1R)-1-[3-(1,1-difluoro-2-hydroxy-2-methyl-propyl)-2-methyl-phenyl]ethyl]amino]-3-(methoxymethyl)-1,3,5-trimethyl-pyrrolo[3,2-g]phthalazin-2-one] | 13.5 nM |
| Cc1nnc(N[C@H](C)c2cccc(C(F)(F)CO)c2F)c2cc3c(cc12)C1(CCOCC1)C(=O)N3C1CC1 [Compound 114, 1-cyclopropyl-5-methyl-8-[[(1R)-1-[3-(1,1-difluoro-2-hydroxy-ethyl)-2-fluoro-phenyl]ethyl]amino]spiro[pyrrolo [2,3-g]phthalazine-3,4′-tetrahydropyran]-2-one] | 9.12 nM |
| Cc1nnc(N[C@H](C)c2cccc(C(F)(F)C(C)(C)O)c2F)c2cc3c(cc12)N(C)C(=O)C31CCOCC1 [Compound 115, 1,8-dimethyl-5-[[(1R)-1-[3-(1,1-difluoro-2-hydroxy-2-methyl-propyl)-2-fluoro-phenyl]ethyl]amino]spiro[pyrrolo[3,2-g]phthalazine-3,4′-tetrahydropyran]-2-one] | 6.61 nM |
| Cc1nnc(N[C@H](C)c2cccc(C(F)(F)CO)c2F)c2cc3c(cc12)N(C)C(=O)C31CCOCC1 [Compound 116, 1,8-dimethyl-5-[[(1R)-1-[3-(1,1-difluoro-2-hydroxy-ethyl)-2-fluoro-phenyl]ethyl]amino]spiro[pyrrolo [3,2-g]phthalazine-3,4′-tetrahydropyran]-2-one] | 6.61 nM |
| COC1(C)C(=O)N(C2CC2)c2cc3c(N[C@H](C)c4cccc(C(F)(F)C(C)(C)O)c4)nnc(C)c3cc21 (stereo partly drawn) [Compound 117, 1-cyclopropyl-3-methoxy-3,5-dimethyl-8-[[(1R)-1-[3-(1,1-difluoro-2-hydroxy-2-methyl-propyl)phenyl]ethyl]amino]pyrrolo [2,3-g]phthalazin-2-one] | 9.55 nM |
| Cc1nnc(N[C@H](C)c2cccc(C(F)(F)CN)c2F)c2cc3c(cc12)C(C)(C)C(=O)N3C [Compound 118, 1,3,3,5-tetramethyl-8-[[(1R)-1-[3-(2-amino-1,1-difluoro-ethyl)-2-fluoro-phenyl]ethyl]amino]pyrrolo[2,3-g]phthalazin-2-one] | 11.5 nM |
